In patent US12115147B2, “Formulations and methods related to eye irritation” (Lebrun Labs LLC, priority 2020, dated 2024):
Like-named read-outs stand apart in the source and are kept apart here. Values belong to the compound of their own block, whether it stands above or below them.

Key:
[1] = OPTISAFE in vitro ocular irritation test, original formulation without antioxidants; settings: for OPTISAFE (no antioxidant) Score AVG: ROS/CL chemicals; for OPTISAFE (no antioxidant) Score AVG / OPTISAFE Score AVG: triplicate assays; for OPTISAFE Score AVG: original formulation without antioxidants
Experimental: Surfactants were diluted.
Next a study was conducted to determine if the addition of antioxidants changes the reliability (repeatability) of the test method. After this, a large study determined if antioxidants specifically reduce the false positive rate without impacting the true positive rate and the true negative rate and then all prior test chemicals were rested with antioxidants in triplicate.

[2] = pH 6.36
[3] = no antioxidants, predicted GHS class, cited from earlier work
[4] = test system: reconstituted human corneal epithelium; assay: Modified EPIOCULAR test with or without ascorbic acid overlay, MTT viability
[5] = OS2 (OPTISAFE2), OPTISAFE formulation with antioxidants; settings: for OS2 Cons / OS2 R1 / OS2 R3: Table 7B; for OS2 Cons: majority prediction of the triplicate assays; for OS2 R1: repeat 1, with antioxidants; for OS2 R1 / OS2 R3: predicted GHS class; for OS2 R3: repeat 3, with antioxidants
[6] = test system: rabbit eye; settings: cited from earlier work; for In vivo GHS: Table 7B, based on the Draize data
[7] = Table 7A, consensus of past transferability study
[8] = Table 7B, consensus of past application domain study

Compound: CCCCC(CC)COC(=O)CS (stereo not drawn)
OPTISAFE prediction without the antioxidant mixture [1]: overpredicted

OS2 (with antioxidant) Score AVG [2]: 11.4 ± 6.4
Compound: C=CCCCCCCC=C [1,9-Decadiene]
OS Cons [3, 7]: 2
OPTISAFE (no antioxidant) Score AVG [1]: 22.5 ± 3.6

OS2 Score AVG [2]: 15.1 ± 0.4
Compound: CCC(O)C(C)(C)C (stereo not drawn) [2,2-Dimethyl-3-pentanol]
OS Cons [3, 7]: 2
OPTISAFE prediction without the antioxidant mixture [1]: overpredicted
OPTISAFE Score AVG [1]: 19.2 ± 1.2

OS2 Score AVG [2]: 10.2 ± 0.7
OS2 score average [2]: 9.5
OS2 scores ranged from [2]: 7.8-10.9
Score = Average score [2]: 9.5
Compound: CC(O)CC(C)O (stereo not drawn) [2,4-Pentanediol]
OPTISAFE Score AVG [1]: 12.0 ± 1.4

OS2 (with antioxidant) Score AVG [2]: 12.0 ± 0.3
Compound: CCOCCOCCO [2-(2-Ethoxyethoxy)ethanol]
OS Cons [3, 8]: 2
OPTISAFE (no antioxidant) Score AVG [1]: 21.7 ± 0.3

OS2 (with antioxidant) Score AVG [2]: 14.5 ± 2.7
OS2 Cons [2]: 2
OS2 R1 [2]: 2
Compound: C=C(C)C(=O)OCCOCC [2-Ethoxyethyl methacrylate]
OS Cons [3, 8]: 1
OPTISAFE (no antioxidant) Score AVG [1]: 97.1 ± 18.2

OS2 Score AVG [2]: 3.0 ± 2.6
Compound: CCCCCCCCCCCC [Dodecane]
OPTISAFE Score AVG [1]: 0.9 ± 0.8

OS2 Cons [2]: 2
OS2 R1 [2]: 2
OS2 R3 [2]: 2
OS2 Score AVG [2]: 25.6 ± 2.4
Compound: CCOC(C)=O [Ethyl acetate]
OPTISAFE Score AVG [1]: 23.9 ± 2.0

OS2 (with antioxidant) Score AVG [2]: 21.6 ± 2.5
OS2 Cons [2]: 2
OS2 R1 [2]: 2
OS2 R3 [2]: 2
Compound: CCOCCOCC [Ethylene glycol diethyl ether]
OS Cons [3, 8]: 2
OPTISAFE (no antioxidant) Score AVG [1]: 25.4 ± 1.8

Compound: C=Cc1ccccc1 [Styrene]
prediction, Condition 2 ([4]; ascorbic acid (0.3 mg/ml) in PBS overlay and culture medium): nonirritant (TN)
cell killing, Condition 2 ([4]; ascorbic acid (0.3 mg/ml) in PBS overlay and culture medium, MTT, visual): significantly less cell killing
cell killing, Condition 1 ([4]; no ascorbic acid added, 50 μL, 30 min exposure, MTT, visual): extensive cell killing
OS2 (with antioxidant) Score AVG [2]: 3.5 ± 0.8
OPTISAFE (no antioxidant) Score AVG [1]: 53.5 ± 10.1

OS2 (with antioxidant) Score AVG [2]: 5.1 ± 1.7
OS2 score average [2]: 3.1
OS2 scores ranged from [2]: 2.1-4.2
Score = Average score [2]: 3.1
Compound: OCCOCCOCCO [Triethylene glycol]
OS Cons [3, 8]: 2
OPTISAFE (no antioxidant) Score AVG [1]: 13.2 ± 3.5

Compound: c1ccc(OP(Oc2ccccc2)Oc2ccccc2)cc1 [Triphenyl phosphite]
OS2 Cons [5]: 1
OS2 R1 [5]: 1
OS2 R3 [5]: 1
OS2 Score AVG ([5]; new formulation with antioxidants at the in vivo concentration, triplicate assays): 169.0 ± 9.9
OS Cons [3, 8]: 1
OPTISAFE Score AVG [1]: 113.3 ± 2.1

Compound: CC(C)Br [iso-Propyl bromide]
OPTISAFE prediction without the antioxidant mixture [1]: overpredicted

Compound: CCN(CC)C(=O)c1cccc(C)c1 [n,n-Diethyl-m-toluamide]
OS2 Cons [5]: 1
OS2 R1 [5]: 1
OS2 R3 [5]: 1
OS Cons [3, 8]: 2
In vivo GHS [6]: 2B (2B (reversal by 14 days))
known ocular irritancy (FIG. 4 legend) ([6]; rabbit, in vivo): Irritants

Compound: Diethylaminopropionitrile
OS2 Cons [5]: 1
OS2 R1 [5]: 2
OS2 R3 [5]: 1
OS Cons [3, 8]: CNM
In vivo GHS [6]: 1 (1 (no reversal by 21 days))
